Data as given in patent US20240327408A1, “COMPOUNDS CONTAINING TETRAHYDRONAPHTHYRIDINONE OR TETRAHYDROPYRIDOPYRIMIDINONE SKELETON, PREPARATION METHOD THEREFOR AND PHARMACEUTICAL USE THEREOF” (CHINA PHARMACEUTICAL UNIVERSITY, priority 2021, published 2024).

Legend:
hClpP = target: T1, hClpP (Homo sapiens, UniProt Q16740); experiment: activating ClpP hydrolysis of FITC-casein (fluorescence kinetic detection); type: biochemical; details: hClpP 1 μM, FITC-Casein 4 μM, 37° C.
T1 construct: made in house
T1 sequence (Q16740 57-277): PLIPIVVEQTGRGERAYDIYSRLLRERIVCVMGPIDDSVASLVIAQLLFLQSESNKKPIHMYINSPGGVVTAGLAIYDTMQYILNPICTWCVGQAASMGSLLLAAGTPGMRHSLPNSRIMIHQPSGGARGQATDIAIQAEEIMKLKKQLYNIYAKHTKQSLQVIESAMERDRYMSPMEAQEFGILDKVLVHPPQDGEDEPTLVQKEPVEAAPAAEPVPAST
Outline: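 hClpP at 1 μM final preincubated with compounds (assay-buffer dilutions 200 μM–2 nM, before mixing) 30 min at 37 °C, then 4 μM final FITC-casein added. Fluorescence read kinetically at 37 °C every 1 min for 15 min, duplicate wells.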

MV4; 11 cells = experiment: inhibiting the growth of MV4; 11 cells; type: cell-based; details: Homo sapiens

Structure (SMILES)	EC50 (hClpP) [µM]	IC50 (MV4; 11 cells) [µM]
N#Cc1cccc(CN2CCc3c(c(=O)n(Cc4ccc(C(F)(F)F)cc4)c4ncccc34)C2)c1 [Compound I-83, 6-(4-trifluoromethylbenzyl)-3-(3-cyanobenzyl)-2,3,4,6-tetrahydropyrido[3,4-c][1,8]naphthyridine-5-(1H)-one]	< 1	< 1
O=c1c2c(c3cccnc3n1Cc1ccc(Cl)cc1)CCN(Cc1cccc(Br)c1)C2 [Compound I-76, 3-(3-bromobenzyl)-6-(4-chlorobenzyl)-2,3,4,6-tetrahydropyrido[3,4-c][1,8]naphthyridine-5-(1H)-one]	< 1	< 1
O=c1c2c(n3ccnc3n1Cc1ccc(F)cc1F)CCN(Cc1cccc(Cl)c1)C2 [Compound I-124, 7-(3-chlorobenzyl)-4-(2,4-difluorobenzyl)-6,7,8,9-tetrahydroimidazo[1,2-a]pyrido[3,4-e]pyrimidine-5(4H)-one]	< 1	< 1
O=c1c2c(n3ccnc3n1Cc1ccc(F)cc1)CCN(Cc1ccccc1)C2 [Compound I-112, 7-benzyl-4-(4-fluorobenzyl)-6,7,8,9-tetrahydroimidazo[1,2-a]pyrido[3,4-e]pyrimidine-5(4H)-one]	< 1	< 1
CCc1ccc(Cn2c(=O)c3c(n4ccnc24)CCN(Cc2cccc(C)c2)C3)cc1 [Compound I-140, 7-(3-methylbenzyl)-4-(4-ethylbenzyl)-6,7,8,9-tetrahydroimidazo[1,2-a]pyrido[3,4-e]pyrimidine-5(4H)-one]	< 1	< 1
CCc1ccc(Cn2c(=O)c3c(n4ccnc24)CCN(Cc2cccc(C#N)c2)C3)cc1 [Compound I-141, 7-(3-cyanobenzyl)-4-(4-ethylbenzyl)-6,7,8,9-tetrahydroimidazo[1,2-a]pyrido[3,4-e]pyrimidine-5(4H)-one]	< 1	< 1
Cn1ccc(CN2CCc3c(c(=O)n(Cc4ccccc4)c4ncccc34)C2)n1 [Compound I-24, 6-benzyl-3-((1-methyl-1H-pyrazol-3-yl)methyl)-2,3,4,6-tetrahydropyrido[3,4-c][1,8]naphthyridine-5-(1H)-one]	10 to 100	1 to 10
O=c1c2c(c3cccnc3n1Cc1ccccc1)CCN(CC1CCC1)C2 [Compound I-2, 6-benzyl-3-(cyclobutylmethyl)-2,3,4,6-tetrahydropyrido[3,4-c][1,8]naphthyridine-5-(1H)-one]	10 to 100	1 to 10
O=c1c2c(c3cccnc3n1Cc1ccccc1)CCN(Cc1ccccc1F)C2 [Compound I-6, 6-benzyl-3-(2-fluorobenzyl)-2,3,4,6-tetrahydropyrido[3,4-c][1,8]naphthyridine-5-(1H)-one]	1 to 10	< 1
COc1ccc(CN2CCc3c(c(=O)n(Cc4ccccc4)c4ncccc34)C2)cc1 [Compound I-23, 6-benzyl-3-(4-methoxybenzyl)-2,3,4,6-tetrahydropyrido[3,4-c][1,8]naphthyridine-5-(1H)-one]	1 to 10	< 1
COc1cccc(Cn2c(=O)c3c(c4cccnc42)CCN(Cc2ccccc2)C3)c1 [Compound I-51, 3-benzyl-6-(3-methoxybenzyl)-2,3,4,6-tetrahydropyrido[3,4-c][1,8]naphthyridine-5-(1H)-one]	< 1	< 1
Cn1cncc1CN1CCc2c(c(=O)n(Cc3ccccc3)c3ncccc23)C1 [Compound I-33, 6-benzyl-3-((1-methyl-1H-imidazol-5-yl)methyl)-2,3,4,6-tetrahydropyrido[3,4-c][1,8]naphthyridine-5-(1H)-one]	10 to 100	1 to 10
Cn1ccc(Cn2c(=O)c3c(c4cccnc42)CCN(Cc2ccccc2)C3)n1 [Compound I-58, 3-benzyl-6-((1-methyl-1H-pyrazol-3-yl)methyl)-2,3,4,6-tetrahydropyrido[3,4-c][1,8]naphthyridine-5-(1H)-one]	10 to 100	1 to 10
O=c1c2c(c3cccnc3n1Cc1ccncc1)CCN(Cc1ccccc1)C2 [Compound I-63, 3-benzyl-6-(pyridin-4-ylmethyl)-2,3,4,6-tetrahydropyrido[3,4-c][1,8]naphthyridine-5-(1H)-one]	10 to 100	1 to 10
O=c1c2c(c3cccnc3n1Cc1ccc(F)cc1)CCN(Cc1ccccc1)C2 [Compound I-52, 3-benzyl-6-(4-fluorobenzyl)-2,3,4,6-tetrahydropyrido[3,4-c][1,8]naphthyridine-5-(1H)-one]	< 1	< 1
Cc1ccc(Cn2c(=O)c3c(n4ccnc24)CCN(Cc2cccc(Cl)c2)C3)cc1 [Compound I-134, 7-(3-chlorobenzyl)-4-(4-methylbenzyl)-6,7,8,9-tetrahydroimidazo[1,2-a]pyrido[3,4-e]pyrimidine-5(4H)-one]	< 1	< 1
O=c1c2c(n3ccnc3n1Cc1ccc(Cl)cc1)CCN(Cc1ccccc1)C2 [Compound I-117, 7-benzyl-4-(4-chlorobenzyl)-6,7,8,9-tetrahydroimidazo[1,2-a]pyrido[3,4-e]pyrimidine-5(4H)-one]	< 1	< 1

Structure (SMILES)	EC50 (hClpP) [µM]	IC50 (MV4; 11 cells) [µM]
CCc1ccc(Cn2c(=O)c3c(c4cccnc42)CCN(Cc2ccccc2)C3)cc1 [Compound I-56, 3-benzyl-6-(4-ethylbenzyl)-2,3,4,6-tetrahydropyrido[3,4-c][1,8]naphthyridine-5-(1H)-one]	< 1	< 1
Cc1cccc(CN2CCc3c(c(=O)n(Cc4ccc(C(F)(F)F)cc4)c4nccn34)C2)c1 [Compound I-130, 7-(3-methylbenzyl)-4-(4-trifluoromethylbenzyl)-6,7,8,9-tetrahydroimidazo[1,2-a]pyrido[3,4-e]pyrimidine-5(4H)-one]	< 1	< 1
COc1ccc(Cn2c(=O)c3c(n4ccnc24)CCN(Cc2cccc(Cl)c2)C3)cc1 [Compound I-144, 7-(3-chlorobenzyl)-4-(4-methoxybenzyl)-6,7,8,9-tetrahydroimidazo[1,2-a]pyrido[3,4-e]pyrimidine-5(4H)-one]	< 1	< 1
COc1ccc(Cn2c(=O)c3c(c4cccnc42)CCN(Cc2ccccc2)C3)cc1 [Compound I-57, 3-benzyl-6-(4-methoxybenzyl)-2,3,4,6-tetrahydropyrido[3,4-c][1,8]naphthyridine-5-(1H)-one]	< 1	< 1
COc1ccc(Cn2c(=O)c3c(c4cccnc42)CCN(Cc2cccc(F)c2)C3)cc1 [Compound I-99, 6-(4-methoxybenzyl)-3-(3-fluorobenzyl)-2,3,4,6-tetrahydropyrido[3,4-c][1,8]naphthyridine-5-(1H)-one]	< 1	< 1
O=c1c2c(c3cccnc3n1Cc1ccccc1)CCN(CC1CCCCC1)C2 [Compound I-4, 6-benzyl-3-(cyclohexylmethyl)-2,3,4,6-tetrahydropyrido[3,4-c][1,8]naphthyridine-5-(1H)-one]	10 to 100	< 1
O=c1c2c(c3cccnc3n1CC1CCCC1)CCN(Cc1ccccc1)C2 [Compound I-38, 3-benzyl-6-(cyclopentylmethyl)-2,3,4,6-tetrahydropyrido[3,4-c][1,8]naphthyridine-5-(1H)-one]	10 to 100	1 to 10
Cc1ccc(Cn2c(=O)c3c(c4cccnc42)CCN(Cc2cccc(C#N)c2)C3)cc1 [Compound I-91, 6-(4-methylbenzyl)-3-(3-cyanobenzyl)-2,3,4,6-tetrahydropyrido[3,4-c][1,8]naphthyridine-5-(1H)-one]	< 1	< 1
CCc1ccc(CN2CCc3c(c(=O)n(Cc4ccccc4)c4ncccc34)C2)cc1 [Compound I-22, 6-benzyl-3-(4-ethylbenzyl)-2,3,4,6-tetrahydropyrido[3,4-c][1,8]naphthyridine-5-(1H)-one]	1 to 10	< 1
O=c1c2c(c3cccnc3n1Cc1ccccc1F)CCN(Cc1ccccc1)C2 [Compound I-40, 3-benzyl-6-(2-fluorobenzyl)-2,3,4,6-tetrahydropyrido[3,4-c][1,8]naphthyridine-5-(1H)-one]	1 to 10	< 1
CN(C)c1ccc(Cn2c(=O)c3c(c4cccnc42)CCN(Cc2cccc(C#N)c2)C3)cc1 [Compound I-90, 6-(4-dimethylaminobenzyl)-3-(3-cyanobenzyl)-2,3,4,6-tetrahydropyrido[3,4-c][1,8]naphthyridine-5-(1H)-one]	1 to 10	1 to 10
N#Cc1cccc(CN2CCc3c(c(=O)n(Cc4ccc(Cl)cc4)c4cncn34)C2)c1 [Compound I-167, 7-(3-cyanobenzyl)-4-(4-chlorobenzyl)-6,7,8,9-tetrahydroimidazo[1,5-a]pyrido[3,4-e]pyrimidine-5(4H)-one]	1 to 10	1 to 10
COc1ccc(Cn2c(=O)c3c(n4ccnc24)CCN(Cc2cccc(F)c2)C3)cc1 [Compound I-143, 7-(3-fluorobenzyl)-4-(4-methoxybenzyl)-6,7,8,9-tetrahydroimidazo[1,2-a]pyrido[3,4-e]pyrimidine-5(4H)-one]	< 1	< 1
CCc1ccc(Cn2c(=O)c3c(n4ccnc24)CCN(Cc2ccccc2)C3)cc1 [Compound I-137, 7-benzyl-4-(4-ethylbenzyl)-6,7,8,9-tetrahydroimidazo[1,2-a]pyrido[3,4-e]pyrimidine-5(4H)-one]	< 1	< 1
O=c1c2c(c3cccnc3n1Cc1ccccc1)CCN(Cc1cccnc1)C2 [Compound I-28, 6-benzyl-3-(pyridin-3-ylmethyl)-2,3,4,6-tetrahydropyrido[3,4-c][1,8]naphthyridine-5-(1H)-one]	10 to 100	1 to 10
O=c1c2c(c3cccnc3n1Cc1ccccc1)CCN(Cc1ccccc1Cl)C2 [Compound I-7, 6-benzyl-3-(2-chlorobenzyl)-2,3,4,6-tetrahydropyrido[3,4-c][1,8]naphthyridine-5-(1H)-one]	1 to 10	< 1
